Tests used:
Experiment in all cases: relative viability (nuclei count vs DMSO), 5 days (fraction); higher = more cells survive
PAC-1 + Alpelisib = compound: C=CCc1cccc(/C=N/NC(=O)CN2CCN(Cc3ccccc3)CC2)c1O [PAC-1] + Cc1nc(NC(=O)N2CCC[C@H]2C(N)=O)sc1-c1ccnc(C(C)(C)C(F)(F)F)c1 [Alpelisib] (partner 2 µM)
Outline: (§1)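 Each reported value is a median over duplicate plates. It expresses relative viability: treated-well nuclei count divided by vehicle-well nuclei count. Lung cancer cell lines in 1536-well plates were dosed by pin tool a day after seeding, alone with one drug or with a fixed anchor-drug dose plus five library-drug doses (not always all listed) in √10 steps, and nuclei were counted after 5 days.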

PAC-1 + Tozasertib = compound: C=CCc1cccc(/C=N/NC(=O)CN2CCN(Cc3ccccc3)CC2)c1O [PAC-1] + Cc1cc(Nc2cc(N3CCN(C)CC3)nc(Sc3ccc(NC(=O)C4CC4)cc3)n2)n[nH]1 [Tozasertib] (partner 0.1 µM)
Outline: as §1

PAC-1 + Crizotinib = compound: C=CCc1cccc(/C=N/NC(=O)CN2CCN(Cc3ccccc3)CC2)c1O [PAC-1] + C[C@@H](Oc1cc(-c2cnn(C3CCNCC3)c2)cnc1N)c1c(Cl)ccc(F)c1Cl [Crizotinib] (partner 1 µM)
Outline: as §1

PAC-1 + OSI-027 = compound: C=CCc1cccc(/C=N/NC(=O)CN2CCN(Cc3ccccc3)CC2)c1O [PAC-1] + COc1cccc2cc(-c3nc([C@H]4CC[C@H](C(=O)O)CC4)n4ncnc(N)c34)[nH]c12 [OSI-027] (partner 0.5 µM)
Outline: as §1

PAC-1 + Foretinib = compound: C=CCc1cccc(/C=N/NC(=O)CN2CCN(Cc3ccccc3)CC2)c1O [PAC-1] + COc1cc2c(Oc3ccc(NC(=O)C4(C(=O)Nc5ccc(F)cc5)CC4)cc3F)ccnc2cc1OCCCN1CCOCC1 [Foretinib] (partner 0.25 µM)
Outline: as §1

| Cell Line | relative viability (PAC-1 + Alpelisib; first compound 0.02 µM) | relative viability (PAC-1 + Alpelisib; first compound 0.06325 µM) | relative viability (PAC-1 + Alpelisib; first compound 0.2 µM) | relative viability (PAC-1 + Alpelisib; first compound 2 µM) | relative viability (PAC-1 + Tozasertib; first compound 0.02 µM) | relative viability (PAC-1 + Tozasertib; first compound 0.06325 µM) | relative viability (PAC-1 + Tozasertib; first compound 0.2 µM) | relative viability (PAC-1 + Tozasertib; first compound 2 µM) | relative viability (PAC-1 + Crizotinib; first compound 0.02 µM) | relative viability (PAC-1 + Crizotinib; first compound 0.06325 µM) | relative viability (PAC-1 + Crizotinib; first compound 0.2 µM) | relative viability (PAC-1 + Crizotinib; first compound 2 µM) | relative viability (PAC-1 + OSI-027; first compound 0.02 µM) | relative viability (PAC-1 + OSI-027; first compound 0.06325 µM) | relative viability (PAC-1 + OSI-027; first compound 0.2 µM) | relative viability (PAC-1 + OSI-027; first compound 2 µM) | relative viability (PAC-1 + Foretinib; first compound 0.02 µM) | relative viability (PAC-1 + Foretinib; first compound 0.06325 µM) | relative viability (PAC-1 + Foretinib; first compound 0.2 µM) | relative viability (PAC-1 + Foretinib; first compound 2 µM) |
| --- | --- | --- | --- | --- | --- | --- | --- | --- | --- | --- | --- | --- | --- | --- | --- | --- | --- | --- | --- | --- |
| NCI-H1755 | 0.925 | 0.918 | 0.865 | 0.826 | 0.541 | 0.587 | 0.506 | 0.512 | 0.938 | 0.867 | 0.847 | 0.805 | 0.717 | 0.722 | 0.601 | 0.72 | 0.948 | 0.976 | 0.948 | 0.949 |
| SK-LU-1 | 0.901 | 1 | 0.919 | 0.854 | 0.314 | 0.332 | 0.341 | 0.294 | 0.788 | 0.856 | 0.93 | 0.794 | 0.338 | 0.363 | 0.287 | 0.326 | 0.834 | 0.797 | 0.78 | 0.78 |
| HOP-62 | 1.07 | 0.875 | 0.798 | 0.85 | 0.346 | 0.395 | 0.349 | 0.355 | 0.844 | 1.01 | 1.02 | 0.954 | 0.836 | 0.814 | 0.782 | 0.892 | 1.1 | 1.13 | 1.1 | 1.17 |
| NCI-H2228 | 0.611 | 0.672 | 0.593 | 0.753 | 0.228 | 0.258 | 0.263 | 0.234 | 0.467 | 0.416 | 0.498 | 0.398 | 0.543 | 0.513 | 0.512 | 0.564 | 0.903 | 0.862 | 0.888 | 0.786 |
| SW 1573 | 0.646 | 0.82 | 0.571 | 0.771 | 0.172 | 0.184 | 0.255 | 0.148 | 0.786 | 0.658 | 0.701 | 0.839 | 0.642 | 0.613 | 0.606 | 0.791 | 0.828 | 0.741 | 0.912 | 0.979 |
| PC-14 | 0.989 | 0.856 | 0.938 | 0.962 | 0.572 | 0.635 | 0.63 | 0.626 | 0.946 | 0.931 | 0.855 | 0.945 | 1.07 | 0.727 | 0.779 | 0.911 | 0.932 | 0.939 | 0.935 | 0.92 |
| EMC-BAC-2 | 0.72 | 0.801 | 0.737 | 0.67 | 0.297 | 0.263 | 0.265 | 0.274 | 0.771 | 0.709 | 0.796 | 0.72 | 0.367 | 0.363 | 0.371 | 0.382 | 0.999 | 1.04 | 0.936 | 0.996 |
| NCI-H520 | 0.704 | 0.979 | 0.927 | 0.925 | 0.461 | 0.468 | 0.407 | 0.393 | 0.772 | 0.746 | 0.735 | 0.698 | 0.299 | 0.275 | 0.265 | 0.259 | 0.818 | 0.769 | 0.682 | 0.723 |
| NCI-H2170 | 0.746 | 0.859 | 0.752 | 0.7 | 0.693 | 0.776 | 0.805 | 0.712 | 1.15 | 1.25 | 1.14 | 1.03 | 0.701 | 0.631 | 0.784 | 0.645 | 1.08 | 0.961 | 0.969 | 1.01 |
| A-427 | 1.17 | 1.08 | 1.05 | 1.05 | 0.176 | 0.209 | 0.231 | 0.2 | 0.896 | 1.01 | 0.797 | 0.836 | 0.434 | 0.481 | 0.47 | 0.476 | 1.12 | 0.946 | 1.09 | 1.08 |
| ABC-1 | 1.11 | 1.06 | 1.1 | 1.28 | 0.144 | 0.186 | 0.197 | 0.195 | 1.09 | 1.16 | 1.11 | 1.34 | 0.478 | 0.44 | 0.468 | 0.457 | 0.991 | 1.19 | 1 | 1.01 |
| LC-2-ad | 0.942 | 0.845 | 0.791 | 0.887 | 0.456 | 0.48 | 0.357 | 0.449 | 0.383 | 0.436 | 0.443 | 0.398 | 0.877 | 1.05 | 0.78 | 0.64 | 0.968 | 0.875 | 0.887 | 0.954 |
| NCI-H727 | 0.646 | 0.648 | 0.527 | 0.561 | 0.679 | 0.585 | 0.589 | 0.602 | 0.847 | 0.841 | 0.898 | 0.821 | 0.641 | 0.689 | 0.619 | 0.622 | 0.811 | 1.02 | 0.937 | 0.881 |
| COR-L23 | 0.715 | 0.812 | 0.693 | 0.816 | 0.203 | 0.304 | 0.192 | 0.214 | 0.646 | 0.607 | 0.599 | 0.624 | 0.885 | 0.771 | 0.724 | 0.698 | 1.01 | 1.02 | 0.902 | 0.951 |
| NCI-H3122 | 0.66 | 0.808 | 0.837 | 0.747 | 0.421 | 0.425 | 0.394 | 0.344 | 0.251 | 0.274 | 0.234 | 0.294 | 1.25 | 0.972 | 0.919 | 0.925 | 0.958 | 0.976 | 0.967 | 0.89 |
